The values that follow come from patent US12029804B2, “Peptide for promoting mucous membrane permeation and composition containing same” (SOONCHUNHYANG UNIVERSITY INDUSTRY ACADEMY COOPERATION …, priority 2018, dated 2024).

Data set [1] has as its system intestinal mucous membrane. Description: Intestinal (duodenum) administration of doxorubicin with peptide or peptide dimer in rats, doxorubicin blood concentration. As to conditions: rat, duodenum, peptide 10 mg/kg vs doxorubicin only. The protocol:
(§1) For a control group, a 0.5% (w/v) levan aqueous solution including doxorubicin without the peptide was prepared.
(§2) At this time, the dosage of peptide-containing drug was 10 mg/kg for each group.
(§3) Before drug administration, the rat was anesthetized and cannulated into the femoral veno-artery using PE-50. An abdominal cavity was opened and the test substance was administered to an upper duodenum of the small intestine.
(§4) After administration of the solution through a cannula inserted into the femoral vein of the rat, each 250 μl of blood was collected at 5, 10, 20, 40, 60, 120, 180 and 240 minutes and saline was supplemented via the femoral artery. The collected blood was centrifuged at 13,000 rpm for 10 minutes so as to obtain 100 μl of plasma. After adding 200 μl of methanol to the obtained plasma, the resulting solution was subjected into vortex, and then centrifuged again at 13,000 rpm for 10 minutes to carry out deproteinization, and the supernatant was quantitatively analyzed by HPLC-Fluorescence.

The subject of data set [2] is nasal mucous membrane. As to conditions: rat, intranasal; for AUC0-360min of fexofenadine, times higher than the group dosed with fexofenadine alone: fexofenadine with peptide (text on Table 1). The protocol: Male Sprague-Dawley (SD) rats (280-300 g) were acclimated for a minimum of two days in individual cages in a laboratory animal room. At this time, the rats were allowed to freely consume food and water before an experiment, provided with light for 12 hours, and maintained in the dark state for 12 hours. One day before the experiment, the animals were provided only with water and fasted.
The rats prepared in above 1 were divided into each group of three to five rats so as to prepare a total of nine groups, after which each of the test substances prepared was intranasally administered into the group. At this time, the dosage of each drug was 1.0, 2.5 or 5.0 mg/kg per rat.
Before intranasal administration, the rat was anesthetized and cannulated into the femoral veno-artery using PE-50. The solution was carefully administered to the nostril of the rat using a micropipette (Eppendof) so as not to affect the nasal mucous membrane. At this time, the rat's body was laid on the floor and the head was placed while leaning against the wall.
The collected blood was centrifuged at 13,000 rpm for 10 minutes so as to obtain 100 μl of plasma. After adding 200 μl of methanol to the obtained plasma, the resulting solution was subjected into vortex, and then centrifuged again at 13,000 rpm for 10 minutes to carry out deproteinization, and the supernatant was quantitatively analyzed by HPLC-MS.

The conditions of data set [3]: rat, plasma, 10 mg/kg. The procedure:
as §3
(§5) After administration of the solution through a cannula inserted into the femoral vein of the rat, each 250 μl of blood was collected at 5, 10, 20, 40, 60, 120, 180 and 240 minutes and saline was supplemented via the femoral artery. The collected blood was centrifuged at 13,000 rpm for 10 minutes so as to obtain 100 μl of plasma. After adding 200 μl of methanol to the obtained plasma, the resulting solution was subjected into vortex, and then centrifuged again at 13,000 rpm for 10 minutes to carry out deproteinization, and the supernatant was quantitatively analyzed by HPLC-MS.

Data set [4] concerns intestinal mucous membrane. As to conditions: rat, duodenum. The procedure:
as §3, §5

Data set [5] is described as follows: Intestinal (duodenum) administration of doxorubicin with peptide or peptide dimer in rats, doxorubicin blood concentration. As to conditions: rat, in vivo. The protocol: as §1, §2, §3, §4
Data set [6] relates to Caco-2 monolayer. Description: Drug permeability through the Caco-2 monolayer with peptide. As to conditions: peptide 5 mM, all drugs of Table 3.
Data set [7] can be described thus: in vitro. As to conditions: human, Caco-2.
Setting [8] is: fexofenadine with peptide vs fexofenadine alone.

Like-named read-outs stand apart in the source and are kept apart here. Bridge positions count the residues as written; N and C are the ends. Square brackets hold non-standard residues; d marks the D form. Ends that are not written are not given here. Peptide text beside a SMILES is read from it. I, II: the chains in the order shown. ξ: configuration not given here. Dap(N3) = [N-]=[N+]=NC[C@H](N)C(=O)O; ξDap(N3) = [N-]=[N+]=NCC(N)C(=O)O

As to `CC[C@H](C)[C@H](NC(=O)[C@H](CSSC[C@H](NC(=O)[C@H](Cc1ccccc1)NC(=O)[C@@H](N)CN=[N+]=[N-])C(=O)N[C@H](C(=O)NCC(=O)N[C@@H](CCCNC(=N)N)C(=O)N[C@@H](CC(C)C)C(N)=O)[C@@H](C)CC)NC(=O)[C@H](Cc1ccccc1)NC(=O)[C@@H](N)CN=[N+]=[N-])C(=O)NCC(=O)N[C@@H](CCCNC(=N)N)C(=O)N[C@@H](CC(C)C)C(N)=O` [Example 5, X1FCIGRL-NH2 Dimer] (I: H-[Dap(N3)]FCIGRL-NH2 / II: H-[Dap(N3)]FCIGRL-NH2; disulfide I:3-II:3), in data set [1], the “Doxorubicin AUC0-240 min, fold of control” value is given as “(1.77-fold)”.

For “FKIGRL [Preparation Example 4, FKIGRL, reference compound]”, in data set [2] (setting [8]), the “Fexofenadine AUC0-240 min, fold of control group” value (from here on “Fexofenadine AUC0-240 min, fold”) was “(1.09-fold)”; the “Fexofenadine Cmax, fold of control group” value is reported as “(0.71-fold)”; the “Fexofenadine Tmax, fold of control group” value is recorded as “(1.14-fold)”.

Broadly, the AUC(0-t) is exposure summed from dosing to a finite time, without extrapolation to infinity. With `CC[C@@H](C)[C@@H](NC(=O)[C@@H](CSSC[C@H](NC(=O)[C@H](N)Cc1ccccc1)C(=O)N[C@H](C(=O)NCC(=O)N[C@@H](CCCNC(=N)N)C(=O)N[C@@H](CC(C)C)C(N)=O)[C@@H](C)CC)NC(=O)[C@@H](N)Cc1ccccc1)C(=O)NCC(=O)N[C@H](CCCNC(=N)N)C(=O)N[C@H](CC(C)C)C(N)=O` [Example 3, FCIGRL-NH2 Dimer] (I: H-F[dC][dI]G[dR][dL]-NH2 / II: H-[dF]CIGRL-NH2; disulfide I:2-II:2), in data set [2], the “AUC0-360min of fexofenadine, times higher than the group dosed with fexofenadine alone” value is 5.3 times. In addition, the “Fexofenadine AUC0-240 min, fold” value in data set [2] (setting [8]) is recorded as “(5.30-fold)”. For the same compound, the “Fexofenadine Cmax, fold of control group” value is recorded as 9.7 fold in data set [2] (setting [8]) and “(9.76-fold)” in data set [2] (fexofenadine with peptide vs fexofenadine alone, listed as H-FCIGRL-NH2 (Dimer)). In addition, the “Fexofenadine Tmax, fold of control group” value in data set [2] (setting [8]) is listed as “(0.38-fold)”. In addition, the area under the curve AUC(0-t) in data set [3] is 343 ng·h/mL; in data set [5] (10 mg/kg), 174 ng·h/mL. For the same compound, the “Exenadine AUC0-240 min, fold of control” value in data set [4] (5 mg/kg of peptide dimer vs exenadine alone, 5 mg/kg) is “about 2.17 fold”; in data set [4] (5 mg/kg of peptide dimer vs exenadine alone, listed as H-FCIGRL-NH2 (Dimer), 5 mg/kg) it was 3.88(2.17-fold); in data set [4] (10 mg/kg of peptide dimer vs exenadine alone, 10 mg/kg) it was approximately 4.57 fold; in data set [4] (10 mg/kg of peptide dimer vs exenadine alone, listed as H-FCIGRL-NH2 (Dimer), 10 mg/kg), 6.32 (4.57-fold). In data set [1], the “Doxorubicin AUC0-240 min, fold of control” value was “(2.29-fold)”. The “increase rate of Papp (cm/sec) of each drug, effect of promoting mucous membrane permeation” value in data set [6] is listed as “at least seven times higher”.

Consider `CC[C@H](C)[C@H](NC(=O)[C@H](CSSC[C@H](NC(=O)[C@@H](N)Cc1ccccc1)C(=O)N[C@H](C(=O)NCC(=O)N[C@@H](CCCNC(=N)N)C(=O)N[C@@H](CC(C)C)C(=O)O)[C@@H](C)CC)NC(=O)[C@@H](N)Cc1ccccc1)C(=O)NCC(=O)N[C@@H](CCCNC(=N)N)C(=O)N[C@@H](CC(C)C)C(=O)O` [Example 4, FCIGRL-OH Dimer] (I: H-FCIGRL-OH / II: H-FCIGRL-OH; disulfide I:2-II:2), for which the “AUC0-360min of fexofenadine, times higher than the group dosed with fexofenadine alone” value in data set [2] is 3.6 times. In data set [2] (setting [8]), the “Fexofenadine AUC0-240 min, fold” value is “(3.64-fold)”; the “Fexofenadine Cmax, fold of control group” value was determined as 6 fold; the “Fexofenadine Tmax, fold of control group” value is “(0.41-fold)”. The “Fexofenadine Cmax, fold of control group” value in data set [2] (fexofenadine with peptide vs fexofenadine alone, listed as H-FCIGRL-OH (Dimer)) is “(6.06-fold)”.

Broadly, the Papp is the rate of passage across a membrane or cell layer, normalised by area and donor concentration. `COCCc1ccc(OCC(O)CNC(C)C)cc1` (stereo not drawn) [metoprolol] displayed a Papp in data set [7] of 38.9 ×10⁻⁶ cm/s.

Take “FCIGRL-NH2 [Preparation Example 1, FCIGRL-NH2, reference compound]”: in data set [2] (setting [8]), the “Fexofenadine AUC0-240 min, fold” value is given as “(1.70-fold)”; the “Fexofenadine Cmax, fold of control group” value is given as “(1.45-fold)”; the “Fexofenadine Tmax, fold of control group” value was “(1.14-fold)”. Moreover, the “Doxorubicin AUC0-240 min, fold of control” value in data set [1] is listed as “(1.49-fold)”.

As for “FRIGRL [Preparation Example 3, FRIGRL, reference compound]”, in data set [2] (setting [8]), the “Fexofenadine AUC0-240 min, fold” value is listed as “(1.39-fold)”; the “Fexofenadine Cmax, fold of control group” value is on record as “(0.73-fold)”; the “Fexofenadine Tmax, fold of control group” value is listed as “(1.71-fold)”.

As to `COc1cccc2c1C(=O)c1c(O)c3c(c(O)c1C2=O)C[C@@](O)(C(=O)CO)C[C@@H]3O[C@H]1C[C@H](N)[C@H](O)[C@H](C)O1` [Doxorubicin, doxorubicin, reference compound], the AUC(0-t) in data set [5] (male, Sprague-Dawley) was 76.2 ng·h/mL.

Turning to `CC[C@H](C)[C@H](NC(=O)C(CN=[N+]=[N-])NC(=O)[C@H](N)Cc1ccccc1)C(=O)NCC(=O)N[C@@H](CCCNC(=N)N)C(=O)N[C@@H](CC(C)C)C(N)=O` (stereo partly drawn) [Example 1, FX1IGRL-NH2(X1=Dap(N3))] (H-[dF][ξDap(N3)]IGRL-NH2), the “Fexofenadine AUC0-240 min, fold” value in data set [2] (setting [8]) is on record as “(1.92-fold)”; in data set [2] (peptide 1 mg/kg) it was “(1.64-fold)”; in data set [2] (peptide 5 mg/kg), “(2.48-fold)”. Moreover, the “Fexofenadine Cmax, fold of control group” value was 3 fold in data set [2] (setting [8]); “(2.90-fold)” in data set [2] (fexofenadine with peptide vs fexofenadine alone, listed as H-FX1IGRL-NH2); 2 fold in data set [2] (peptide 1 mg/kg); “(2.01-fold)” in data set [2] (peptide 1 mg/kg, listed as H-FX1IGRL-NH2); 4 fold in data set [2] (peptide 5 mg/kg); “(4.05-fold)” in data set [2] (peptide 5 mg/kg, listed as H-FX1IGRL-NH2). Moreover, the “Fexofenadine Tmax, fold of control group” value is “(0.57-fold)” in data set [2] (setting [8]), “(0.57-fold)” in data set [2] (peptide 1 mg/kg), “(0.43-fold)” in data set [2] (peptide 5 mg/kg) and “(0.57-fold)” in data set [2] (peptide […]). The “Doxorubicin AUC0-240 min, fold of control” value in data set [1] is “(1.81-fold)”.

Turning to “FCIGRL [Preparation Example 2, FCIGRL, reference compound]”, in data set [2] (setting [8]), the “Fexofenadine AUC0-240 min, fold” value was “(1.53-fold)”; the “Fexofenadine Cmax, fold of control group” value was “(1.16-fold)”; the “Fexofenadine Tmax, fold of control group” value is “(1.52-fold)”.
